Experimental findings from publication PMC2954458 (Biochemistry, 2010) are described below.

The experiment concerns the target Pdr5 (Saccharomyces cerevisiae, UniProt P33302). The experiment is described as follows: ATPase assay, purified plasma membrane vesicles, Δpdr5 background subtracted. The class given is biochemical. Conditions: 100 mM MOPS pH 7.4, 50 mM KCl, 10 mM MgCl2, 5 mM NaN3, 35 °C.

Sequence of Pdr5 (P33302 whole entry): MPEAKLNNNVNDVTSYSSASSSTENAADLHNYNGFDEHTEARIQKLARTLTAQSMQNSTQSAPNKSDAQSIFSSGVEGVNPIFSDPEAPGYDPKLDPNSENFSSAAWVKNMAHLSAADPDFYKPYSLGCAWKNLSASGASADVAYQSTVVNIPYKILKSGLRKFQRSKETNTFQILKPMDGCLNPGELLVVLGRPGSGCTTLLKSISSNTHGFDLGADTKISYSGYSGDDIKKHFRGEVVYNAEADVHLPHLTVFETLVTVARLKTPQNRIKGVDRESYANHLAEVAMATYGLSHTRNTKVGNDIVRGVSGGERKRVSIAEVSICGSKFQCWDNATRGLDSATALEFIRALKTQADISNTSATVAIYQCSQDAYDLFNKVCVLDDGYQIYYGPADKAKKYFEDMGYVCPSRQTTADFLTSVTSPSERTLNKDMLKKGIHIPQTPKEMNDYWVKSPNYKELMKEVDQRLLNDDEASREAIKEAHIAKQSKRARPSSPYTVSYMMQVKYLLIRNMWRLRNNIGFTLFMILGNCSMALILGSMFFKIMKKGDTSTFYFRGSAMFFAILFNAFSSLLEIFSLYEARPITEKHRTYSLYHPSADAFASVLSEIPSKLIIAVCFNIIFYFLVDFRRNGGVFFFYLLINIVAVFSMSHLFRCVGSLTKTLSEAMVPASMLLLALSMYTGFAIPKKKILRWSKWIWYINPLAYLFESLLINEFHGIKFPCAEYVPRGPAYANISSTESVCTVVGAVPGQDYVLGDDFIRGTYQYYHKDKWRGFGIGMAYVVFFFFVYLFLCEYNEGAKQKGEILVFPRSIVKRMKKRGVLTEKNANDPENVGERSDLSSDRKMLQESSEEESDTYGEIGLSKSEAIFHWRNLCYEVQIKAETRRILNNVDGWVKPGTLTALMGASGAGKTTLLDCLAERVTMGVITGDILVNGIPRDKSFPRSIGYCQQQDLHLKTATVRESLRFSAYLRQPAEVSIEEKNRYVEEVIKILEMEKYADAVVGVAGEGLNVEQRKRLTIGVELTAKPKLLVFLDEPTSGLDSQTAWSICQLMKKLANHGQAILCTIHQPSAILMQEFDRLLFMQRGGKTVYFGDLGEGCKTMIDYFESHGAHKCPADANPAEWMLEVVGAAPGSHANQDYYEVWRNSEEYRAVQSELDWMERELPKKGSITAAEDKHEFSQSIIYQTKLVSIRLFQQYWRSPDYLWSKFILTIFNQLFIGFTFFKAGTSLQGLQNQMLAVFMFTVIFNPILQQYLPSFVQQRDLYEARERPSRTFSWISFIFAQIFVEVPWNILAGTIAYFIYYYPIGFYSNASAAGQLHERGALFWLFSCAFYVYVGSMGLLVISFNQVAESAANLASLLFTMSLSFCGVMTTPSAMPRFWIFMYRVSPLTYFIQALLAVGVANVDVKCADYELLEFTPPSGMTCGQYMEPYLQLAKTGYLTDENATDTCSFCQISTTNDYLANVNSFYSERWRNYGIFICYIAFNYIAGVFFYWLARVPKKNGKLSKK

Regarding `Nc1ncnc2c1ncn2[C@@H]1O[C@H](COP(=O)(O)OP(=O)(O)OP(=O)(O)O)[C@@H](O)[C@H]1O` [ATP], the Km result is reported as “There was little or no difference in the observed Kms”.
